Structures are written as SMILES.

One may read the IC50 as the concentration that gives 50% inhibition. The term inhibition denotes the change of the read-out against control, counted positive when it falls.

Holding throughout (format): biochemical
In assay [1] the target is T1, PIM1 (Homo sapiens, UniProt P11309).
T1 construct: purchased In-house HTRF panel (56 kinases) and PerkinElmer (161-kinase panel)
The experiment in a line: Enzyme selectivity panel. Particulars: 1 mM ATP.
Description: The kinase assays were carried out at room temperature in HEPES 50 mM, pH 7.0, NaN3 0.02%, BSA 0.01%, Orthovanadate 0.1 mM, DTT 1 mM, MgCl2 10 mM in a final volume of 10 µL. Test compounds were transferred to the plate wells by ECHO liquid handler (Labcyte, San Jose, CA) with 0.5% dimethyl sulfoxide (DMSO) in the final assay. Peptide/kinase mixtures were diluted in the appropriate enzymatic buffer and 5µL of the mixture was added to a 384-well small volume black plate. Reactions were initiated by the addition of 5 µL ATP in reaction buffer, the final reaction mixture consisted of 500 nM peptide substrate, 1 mM ATP, and appropriate amount of specific kinase. […] The plates were then sealed and centrifuged at 1800 rpm for 2 minutes. […] Half maximal inhibitory concentration (IC50) determination was performed by fitting the curve of percent control activity versus the log of the compound concentration using the GraphPad Prism 6.0 software.

Assay [2] concerns the target T2, ABL1(G250E) (Homo sapiens, UniProt P00519, G250E).
T2 construct: purchased In-house HTRF panel (56 kinases) and PerkinElmer (161-kinase panel)
The experiment in a line: Broader kinase panel (PerkinElmer). The following applies: 100 nM; read-out: Average Percent Inhibition. The text has this:
(§1) […]. […] […].

In assay [3] the target is T3, AXL (Homo sapiens, UniProt P30530).
T3 construct: purchased In-house HTRF panel (56 kinases) and PerkinElmer (161-kinase panel)
Put plainly: Broader kinase panel (PerkinElmer). Particulars: 100 nM; read-out: Average Percent Inhibition.
Excerpt: as §1

Assay [4] addresses T4, Arg (Homo sapiens, UniProt P42684).
T4 construct: purchased In-house HTRF panel (56 kinases) and PerkinElmer (161-kinase panel)
Put plainly: Broader kinase panel (PerkinElmer). Particulars: 100 nM; read-out: Average Percent Inhibition.
Excerpt: as §1

Assay [5] concerns the target T5, AurA (Homo sapiens, UniProt O14965).
T5 construct: purchased In-house HTRF panel (56 kinases) and PerkinElmer (161-kinase panel)
Put plainly: Broader kinase panel (PerkinElmer). Particulars: 100 nM; read-out: Average Percent Inhibition.
Excerpt: as §1

Assay [6] addresses T6, AurC (Homo sapiens, UniProt Q9UQB9).
T6 construct: purchased In-house HTRF panel (56 kinases) and PerkinElmer (161-kinase panel)
Put plainly: Broader kinase panel (PerkinElmer). Particulars: 100 nM; read-out: Average Percent Inhibition.
Excerpt: as §1

The target in assay [7] is T7, BMX (Homo sapiens, UniProt P51813).
T7 construct: purchased In-house HTRF panel (56 kinases) and PerkinElmer (161-kinase panel)
The experiment in a line: Broader kinase panel (PerkinElmer). The following applies: 100 nM; read-out: Average Percent Inhibition.
Excerpt: as §1

For assay [8], the target named is T8, CDK1/Cycline B1 (Homo sapiens, UniProt P06493).
T8 construct: purchased In-house HTRF panel (56 kinases) and PerkinElmer (161-kinase panel)
T8 sequence (P06493 whole entry): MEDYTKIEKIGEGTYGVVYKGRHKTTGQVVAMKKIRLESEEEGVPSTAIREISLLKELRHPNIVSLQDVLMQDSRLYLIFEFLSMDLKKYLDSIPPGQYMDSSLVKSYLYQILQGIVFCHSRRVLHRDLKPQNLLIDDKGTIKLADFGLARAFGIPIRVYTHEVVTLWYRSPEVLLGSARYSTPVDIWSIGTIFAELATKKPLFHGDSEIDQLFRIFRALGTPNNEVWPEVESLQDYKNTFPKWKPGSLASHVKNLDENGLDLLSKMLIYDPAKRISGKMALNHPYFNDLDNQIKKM
T8 sequence (P14635 whole entry partner): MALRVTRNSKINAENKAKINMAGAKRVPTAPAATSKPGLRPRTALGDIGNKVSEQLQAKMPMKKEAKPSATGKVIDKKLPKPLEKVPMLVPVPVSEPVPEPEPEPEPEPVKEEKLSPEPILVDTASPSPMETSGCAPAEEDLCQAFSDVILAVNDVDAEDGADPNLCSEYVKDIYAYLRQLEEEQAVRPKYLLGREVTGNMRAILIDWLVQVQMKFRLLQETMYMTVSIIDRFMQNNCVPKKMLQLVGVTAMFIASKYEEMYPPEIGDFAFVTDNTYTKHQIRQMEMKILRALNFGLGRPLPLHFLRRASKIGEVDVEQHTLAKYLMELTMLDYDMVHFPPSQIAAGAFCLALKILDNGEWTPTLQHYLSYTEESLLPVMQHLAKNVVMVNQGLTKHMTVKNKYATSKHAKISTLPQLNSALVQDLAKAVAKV
Put plainly: Broader kinase panel (PerkinElmer). The following applies: 100 nM; read-out: Average Percent Inhibition.
Excerpt: as §1

For assay [9], the target named is T9, CK1-epsilon (Homo sapiens, UniProt P49674).
T9 construct: purchased In-house HTRF panel (56 kinases) and PerkinElmer (161-kinase panel)
Put plainly: Broader kinase panel (PerkinElmer). Particulars: 100 nM; read-out: Average Percent Inhibition.
Excerpt: as §1

Assay [10] deals with T10, CK1d (Homo sapiens, UniProt P48730).
T10 construct: purchased In-house HTRF panel (56 kinases) and PerkinElmer (161-kinase panel)
The experiment in a line: Broader kinase panel (PerkinElmer). Particulars: 100 nM; read-out: Average Percent Inhibition.
Excerpt: as §1

Assay [11] deals with T11, DDR2 (Homo sapiens, UniProt Q16832).
T11 construct: purchased In-house HTRF panel (56 kinases) and PerkinElmer (161-kinase panel)
T11 sequence (Q16832 22-855, species assumed): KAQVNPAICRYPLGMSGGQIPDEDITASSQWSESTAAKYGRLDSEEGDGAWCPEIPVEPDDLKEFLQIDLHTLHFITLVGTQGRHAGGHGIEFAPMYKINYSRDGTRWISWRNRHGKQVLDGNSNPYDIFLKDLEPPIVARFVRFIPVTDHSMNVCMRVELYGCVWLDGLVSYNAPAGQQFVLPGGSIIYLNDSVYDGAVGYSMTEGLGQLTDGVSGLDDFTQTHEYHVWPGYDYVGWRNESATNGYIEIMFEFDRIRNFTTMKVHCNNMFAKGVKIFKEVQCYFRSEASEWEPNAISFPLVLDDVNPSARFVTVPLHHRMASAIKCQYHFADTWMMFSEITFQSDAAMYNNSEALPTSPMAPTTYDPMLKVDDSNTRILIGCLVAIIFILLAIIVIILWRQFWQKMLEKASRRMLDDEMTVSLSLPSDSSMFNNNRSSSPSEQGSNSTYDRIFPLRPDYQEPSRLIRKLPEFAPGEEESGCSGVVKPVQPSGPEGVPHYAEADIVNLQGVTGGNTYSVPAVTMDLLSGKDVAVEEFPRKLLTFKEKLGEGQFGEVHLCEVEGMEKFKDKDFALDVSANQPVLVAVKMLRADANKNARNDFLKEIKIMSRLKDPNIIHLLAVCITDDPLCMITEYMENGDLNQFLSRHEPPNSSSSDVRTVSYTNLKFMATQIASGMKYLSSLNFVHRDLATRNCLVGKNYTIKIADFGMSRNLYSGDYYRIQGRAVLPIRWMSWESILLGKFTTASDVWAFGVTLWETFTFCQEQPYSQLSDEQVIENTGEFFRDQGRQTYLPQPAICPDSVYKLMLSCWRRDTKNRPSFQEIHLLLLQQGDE
Put plainly: Broader kinase panel (PerkinElmer). Particulars: 100 nM; read-out: Average Percent Inhibition.
Excerpt: as §1

The target of assay [12] is T12, DYRK1a (Homo sapiens, UniProt Q13627).
T12 construct: purchased In-house HTRF panel (56 kinases) and PerkinElmer (161-kinase panel)
The experiment in a line: Broader kinase panel (PerkinElmer). The following applies: 100 nM; read-out: Average Percent Inhibition.
Excerpt: as §1

Assay [13] concerns the target T13, DYRK4 (Homo sapiens, UniProt Q9NR20).
T13 construct: purchased In-house HTRF panel (56 kinases) and PerkinElmer (161-kinase panel)
The experiment in a line: Broader kinase panel (PerkinElmer). Particulars: 100 nM; read-out: Average Percent Inhibition.
Excerpt: as §1

The target in assay [14] is T14, Erk1 (Homo sapiens, UniProt P27361).
T14 construct: purchased In-house HTRF panel (56 kinases) and PerkinElmer (161-kinase panel)
Put plainly: Broader kinase panel (PerkinElmer). The following applies: 100 nM; read-out: Average Percent Inhibition.
Excerpt: as §1

In assay [15] the target is T15, FGFR3 (Homo sapiens, UniProt P22607).
T15 construct: purchased In-house HTRF panel (56 kinases) and PerkinElmer (161-kinase panel)
T15 sequence (P22607 23-806): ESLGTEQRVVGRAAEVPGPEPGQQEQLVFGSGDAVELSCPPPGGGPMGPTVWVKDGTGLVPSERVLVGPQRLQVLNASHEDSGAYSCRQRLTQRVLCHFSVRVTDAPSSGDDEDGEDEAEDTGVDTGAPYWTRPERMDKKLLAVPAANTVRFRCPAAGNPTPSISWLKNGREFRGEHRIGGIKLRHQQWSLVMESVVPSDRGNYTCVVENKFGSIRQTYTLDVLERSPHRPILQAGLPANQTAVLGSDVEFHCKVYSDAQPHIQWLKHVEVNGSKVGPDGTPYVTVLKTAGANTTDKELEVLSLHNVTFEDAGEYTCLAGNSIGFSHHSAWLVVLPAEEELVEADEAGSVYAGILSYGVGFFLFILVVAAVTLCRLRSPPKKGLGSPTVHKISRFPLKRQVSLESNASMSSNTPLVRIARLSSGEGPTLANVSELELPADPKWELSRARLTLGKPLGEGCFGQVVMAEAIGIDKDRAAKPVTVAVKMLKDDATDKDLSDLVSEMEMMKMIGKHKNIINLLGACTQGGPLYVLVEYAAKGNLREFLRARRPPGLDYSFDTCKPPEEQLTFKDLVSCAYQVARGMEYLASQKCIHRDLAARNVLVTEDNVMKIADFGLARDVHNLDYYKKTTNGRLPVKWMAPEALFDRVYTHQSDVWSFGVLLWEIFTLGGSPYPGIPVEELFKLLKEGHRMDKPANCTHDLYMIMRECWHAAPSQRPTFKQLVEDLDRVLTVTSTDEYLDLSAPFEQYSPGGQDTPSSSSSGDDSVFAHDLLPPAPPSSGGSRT
The experiment in a line: Broader kinase panel (PerkinElmer). Particulars: 100 nM; read-out: Average Percent Inhibition.
Excerpt: as §1

Assay [16] deals with T16, FGFR3 [K650E] (Homo sapiens, UniProt P22607, K650E).
T16 construct: purchased In-house HTRF panel (56 kinases) and PerkinElmer (161-kinase panel)
T16 sequence (P22607 23-806 K650E): as the sequence (P22607 23-806) above, with K628E counted along it
Put plainly: Broader kinase panel (PerkinElmer). The following applies: 100 nM; read-out: Average Percent Inhibition.
Excerpt: as §1

The target in assay [17] is FLT3 (Homo sapiens, UniProt P36888). Put plainly: Broader kinase panel (PerkinElmer). The following applies: 100 nM; read-out: Average Percent Inhibition.
Excerpt: as §1

The target in assay [18] is T17, GSK3-alpha (Homo sapiens, UniProt P49840).
T17 construct: purchased In-house HTRF panel (56 kinases) and PerkinElmer (161-kinase panel)
The experiment in a line: Broader kinase panel (PerkinElmer). Particulars: 100 nM; read-out: Average Percent Inhibition.
Excerpt: as §1

For assay [19], the target named is T18, GSK3B (Homo sapiens, UniProt P49841).
T18 construct: purchased In-house HTRF panel (56 kinases) and PerkinElmer (161-kinase panel)
T18 sequence (P49841 whole entry, species assumed): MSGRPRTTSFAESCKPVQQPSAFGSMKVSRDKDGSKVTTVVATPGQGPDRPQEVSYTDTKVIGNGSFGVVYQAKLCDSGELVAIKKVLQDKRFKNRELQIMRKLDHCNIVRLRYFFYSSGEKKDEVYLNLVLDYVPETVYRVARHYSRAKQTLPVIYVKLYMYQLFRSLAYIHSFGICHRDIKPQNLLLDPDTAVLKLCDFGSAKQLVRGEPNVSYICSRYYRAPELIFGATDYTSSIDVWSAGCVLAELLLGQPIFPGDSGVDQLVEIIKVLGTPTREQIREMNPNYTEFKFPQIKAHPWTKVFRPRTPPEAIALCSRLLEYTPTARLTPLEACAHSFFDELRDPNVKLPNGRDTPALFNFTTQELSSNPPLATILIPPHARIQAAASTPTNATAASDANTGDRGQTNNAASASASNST
Put plainly: Broader kinase panel (PerkinElmer). Particulars: 100 nM; read-out: Average Percent Inhibition.
Excerpt: as §1

For assay [20], the target named is T19, HIPK2 (Homo sapiens, UniProt Q9H2X6).
T19 construct: purchased In-house HTRF panel (56 kinases) and PerkinElmer (161-kinase panel)
T19 sequence (Q9H2X6 whole entry): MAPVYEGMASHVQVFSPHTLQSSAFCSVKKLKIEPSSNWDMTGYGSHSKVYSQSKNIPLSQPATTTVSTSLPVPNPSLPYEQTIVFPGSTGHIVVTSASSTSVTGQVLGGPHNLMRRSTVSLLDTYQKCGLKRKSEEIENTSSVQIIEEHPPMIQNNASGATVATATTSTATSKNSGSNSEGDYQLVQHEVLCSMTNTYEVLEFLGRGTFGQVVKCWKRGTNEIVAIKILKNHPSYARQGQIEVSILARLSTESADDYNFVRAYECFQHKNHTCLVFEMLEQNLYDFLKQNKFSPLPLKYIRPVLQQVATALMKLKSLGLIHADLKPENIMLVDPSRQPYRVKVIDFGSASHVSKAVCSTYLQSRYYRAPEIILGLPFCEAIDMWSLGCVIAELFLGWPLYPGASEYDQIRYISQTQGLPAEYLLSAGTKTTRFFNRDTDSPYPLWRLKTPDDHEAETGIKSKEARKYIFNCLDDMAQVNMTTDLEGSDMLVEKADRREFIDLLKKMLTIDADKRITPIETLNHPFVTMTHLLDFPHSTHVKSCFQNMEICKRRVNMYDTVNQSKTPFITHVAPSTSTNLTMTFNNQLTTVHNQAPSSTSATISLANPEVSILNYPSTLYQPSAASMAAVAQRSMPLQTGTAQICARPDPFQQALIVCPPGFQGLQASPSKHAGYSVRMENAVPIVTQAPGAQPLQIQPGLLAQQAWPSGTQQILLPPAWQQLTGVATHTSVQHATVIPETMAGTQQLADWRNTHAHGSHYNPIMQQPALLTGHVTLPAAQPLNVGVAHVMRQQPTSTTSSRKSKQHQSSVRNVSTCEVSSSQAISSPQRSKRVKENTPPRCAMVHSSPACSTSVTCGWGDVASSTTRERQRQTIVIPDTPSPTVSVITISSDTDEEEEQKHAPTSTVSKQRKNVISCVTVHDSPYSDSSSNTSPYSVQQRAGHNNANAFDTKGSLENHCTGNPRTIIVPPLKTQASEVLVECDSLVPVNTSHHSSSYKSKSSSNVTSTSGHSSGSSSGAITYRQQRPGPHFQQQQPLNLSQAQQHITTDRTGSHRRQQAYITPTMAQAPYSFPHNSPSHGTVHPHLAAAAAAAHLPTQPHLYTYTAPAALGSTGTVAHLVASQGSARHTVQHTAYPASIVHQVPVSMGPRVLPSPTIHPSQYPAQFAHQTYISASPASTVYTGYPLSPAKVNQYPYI
The experiment in a line: Broader kinase panel (PerkinElmer). Particulars: 100 nM; read-out: Average Percent Inhibition.
Excerpt: as §1

Assay [21] addresses T20, IKBKE (IKK epsilon) (Homo sapiens, UniProt Q14164).
T20 construct: purchased In-house HTRF panel (56 kinases) and PerkinElmer (161-kinase panel)
The experiment in a line: Broader kinase panel (PerkinElmer). Particulars: 100 nM; read-out: Average Percent Inhibition.
Excerpt: as §1

T5 sequence (O14965 whole entry): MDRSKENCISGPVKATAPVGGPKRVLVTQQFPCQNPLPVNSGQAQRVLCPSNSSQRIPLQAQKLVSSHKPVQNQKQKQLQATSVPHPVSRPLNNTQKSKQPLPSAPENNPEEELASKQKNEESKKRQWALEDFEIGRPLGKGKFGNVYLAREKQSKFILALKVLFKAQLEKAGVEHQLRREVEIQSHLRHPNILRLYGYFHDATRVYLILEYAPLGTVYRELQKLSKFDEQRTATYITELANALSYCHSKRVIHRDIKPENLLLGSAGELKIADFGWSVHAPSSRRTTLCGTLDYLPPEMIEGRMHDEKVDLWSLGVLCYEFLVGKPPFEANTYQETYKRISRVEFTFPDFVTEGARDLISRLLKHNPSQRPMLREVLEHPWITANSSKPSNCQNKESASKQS
T1 sequence (P11309 whole entry, species assumed): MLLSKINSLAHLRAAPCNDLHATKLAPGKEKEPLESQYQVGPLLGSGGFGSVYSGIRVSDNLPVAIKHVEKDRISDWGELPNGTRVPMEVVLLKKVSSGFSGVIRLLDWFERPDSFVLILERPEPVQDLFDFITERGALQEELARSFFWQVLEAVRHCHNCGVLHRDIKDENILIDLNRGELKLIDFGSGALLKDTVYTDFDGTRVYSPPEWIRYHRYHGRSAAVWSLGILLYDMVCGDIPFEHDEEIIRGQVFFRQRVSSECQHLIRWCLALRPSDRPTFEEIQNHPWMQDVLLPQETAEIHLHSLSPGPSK

Compound `CCN1C(=O)N(c2c(F)c(OC)cc(OC)c2F)Cc2cnc3[nH]c(CN4CCOCC4)cc3c21` [INCB054828, pemigatinib] came in with an IC50 in assay [1] of more than 10 µM. Further, the inhibition at 0.1 µM in assay [2] was 1%; in assay [3], -8%; in [4] it was -4%; in [5], 6%; in assay [6] it was -4%; in [7], 3%. For the same compound, the inhibition at 0.1 µM was 5% in [8]; -1% in [9]; -1% in assay [10]; -1% in assay [11]; -2% in [12]; -4% in assay [13]. In addition, the inhibition at 0.1 µM was 1% in assay [14]; 98% in assay [15]; 84% in assay [16]; 0% in [17]; 2% in assay [18]; -1% in assay [19]. For the same compound, the inhibition at 0.1 µM in assay [20] was -1%; in [21], -2%.

(Values after paper PMC7313537 (PLoS ONE, 2020).)
